Experimental findings from patent EP0665223A1, “Antitumor agent, novel 3(2H)-pyridazinone derivatives and their preparation” (TAKEDA CHEMICAL INDUSTRIES, LTD., priority 1994, dated 1995) are described below.

The IC50 is the point on the concentration scale where inhibition reaches its midpoint. Read a high IC50 as weaker potency.

For assay [1], the system named is pancreatic cancer cell strain PC-3. Kind of assay: Suppressing proliferation of PC-3 cells in vitro (MTT, number of living cells). Type of assay: cell-based. The settings on record: 96 h, PC-3, F-12K medium, incubated 4 days with test compound. On the procedure: (§1) A cell suspension of pancreatic cancer cell AsPC-1 (20000/ml) in RPMI 1640 medium (Flow Laboratories) supplemented with 10% of inactivated fetal calf serum, 1 mM of sodium pyruvate and 25 mM of HEPES [2-{4-(2-hydroxyethyl)-1-piperazinyl}ethanesulfonic acid] was added to 96-well micro-culture plates (50ul/well). The culture plates were incubated at 37°C in a 5% CO₂ incubator. On the following day, the solution of each test compound dissolved in dimethylformamide and diluted (3-fold steps) was added (50 ul/well), which was incubated for further 3 days. The culture broth containing the test compounds was eliminated, and the cells were washed, to which was added a solution of MTT pigment, and the number of living cells was calculated [Tada et al. J. Immunol. Methods, 93 p.157 (1986)]. The number of cells in the control group containing no test compound was assumed to be 100%, and the respective ratios of cell numbers in groups containing the respective test compounds were calculated to thereby determine the concentrations (IC₅₀ value) of the respective test compounds necessary to suppress the number of living cells to 50% of that of the control group.
For the test of pancreatic cancer cell strain PC-3, the same method in the case of AcPC-1 was employed excepting the use of F-12K medium containing 10% inactivated fetal calf serum (Flow Laboratories) and change of the incubation period after adding the test compounds to 4 days, to thereby determine the IC₅₀ value (nm).

Assay [2] has as its system human pancreatic carcinoma cells AsPC-1. Kind of assay: Suppressing proliferation of pancreatic carcinoma in vivo (AsPC-1 transplanted subcutaneously into nude mice, tumor volume). Details: species or system Balb/c nude mice. As to conditions: once for two days during 14 days, tumor volume of treated group to control group. On the procedure:
The human pancreatic carcinoma cells AsPC-1 (3x10⁶cells) were transplanted subcutaneously into Balb/c nude mice (7 week old) at the flank. On 35th day after the transplantation, the tumor size was measured. Five mice (per group) with almost the same tumor size were employed for the experiment. These groups were respectively administered intraperitoneally with No. 1, 2 and 19 of the compounds of this invention dissolved in corn oil, once for two days during 14 days. On the day following the completion of administration, the tumor size was measured, and the tumor volume was calculated by the formula: Tumor volume = major axis x minor axis x minor axis x (1/2) [formula] . The ratio of the tumor volume in the treated group to that in a control group to which corn oil alone was administered was calculated as a proliferation ratio.

In assay [3] the test system is pancreatic cancer cell AsPC-1. Kind of assay: Suppressing proliferation of pancreatic cancer cell AsPC-1 in vitro (MTT, number of living cells). Type of assay: cell-based. The settings on record: Homo sapiens, ASPC1, 72 h, AsPC-1, RPMI 1640 medium, incubated 3 days with test compound. On the procedure: as §1
Where [4] appears, read: Dosage 16.7 mg/kg intraperitoneally in corn oil.

SMILES strings stand for the structures. Some results are limits rather than exact numbers.

`CC(C)(C)c1ccc(CSc2cnn(C(C)(C)C)c(=O)c2Cl)cc1` [Compound 1, 2-t-butyl-4-chloro-5-(4-t-butyl)benzylthio-3(2H)pyridanzine]: the IC50 was under 1.52 nM in assay [1] and 16 nM in assay [3]. In addition, the “Proliferation ratio (%)” value in assay [2] (Dosage 6.7 mg/kg intraperitoneally in corn oil) came out at 56%.

On to `CC(C)(C)n1ncc(SCc2ccccc2)c(Cl)c1=O` [Compound 2, 2-t-butyl-4-chloro-5-benzylthio-3 (2H)pyridazinone], for which the IC50 in assay [1] stood at 120 nM; in assay [3] it was 440 nM. Moreover, in assay [2] (setting [4]), the “Proliferation ratio (%)” value is given as 48%.

With `CC(C)(C)c1ccc(COc2cnn(C(C)(C)C)c(=O)c2Cl)cc1` [Compound 19, 2-t-butyl-4-chloro-5-(4-t-butyl)benzyloxy-3(2H)pyridazinone], the IC50 in assay [1] is under 1.52 nM; in assay [3] it was 180 nM. For the same compound, the “Proliferation ratio (%)” value in assay [2] (setting [4]) turned out to be 29%.

On to `CC(C)(C)n1ncc(SCc2ccc(-c3csnn3)cc2)c(Cl)c1=O` [Compound 115, 2-t-butyl-4-chloro-5-[4-(1,2,3-thiadiazol-4-yl)benzylthio]-3(2H)-pyridazinone], for which the values for the IC50 in assay [1] and in assay [3] were under 1.52 nM and 49 nM, respectively.

As for `CC(C)(C)n1ncc(OCc2ccc(-c3csnn3)cc2)c(Cl)c1=O` [Compound 116, 2-t-butyl-4-chloro-5-[4-(1,2,3-thiadiazol-4-yl)benzyloxy]-3(2H)-pyridazinone], the IC50 in assay [1] worked out at 14 nM; in assay [3], 370 nM.

With `CC(C)(C)n1ncc(SCc2ccc(-c3ncns3)cc2)c(Cl)c1=O` [Compound 117, 2-t-butyl-4-chloro-5-[4-(1,2,4-thiadiazol-5-yl)benzylthio]-3(2H)-pyridazinone], the results for the IC50 in assay [1] and in assay [3] were 2 nM and 100 nM, respectively.

As for `CC(C)(C)n1ncc(SCc2ccc(-c3cnco3)cc2)c(Cl)c1=O` [Compound 119, 2-t-butyl-4-chloro-5-[4-(1,3-oxazol-5-yl)benzylthio]-3(2H)-pyridazinone], the IC50 in assay [1] was under 1.52 nM; in assay [3], 370 nM.
